In ChEMBL document CHEMBL1121451, “Neuroleptic activity in 5-aryltetrahydro-gamma-carbolines” (J Med Chem, 1980):

Experiments:
Assay type in all cases: functional
[1] = test system: Rattus norvegicus; assay: Tested for neuroleptic activity by measuring antagonism of d-amphetamine sulfate at intraperitoneal dosage of 5 mg/kg, after 5 hours in rat; conditions: ip
[2] = organism: Rattus norvegicus; assay: Inhibition of amphetamine induced stereotypy in rats; pretreated 1 hr before amphetamine.
[3] = test system: Rattus norvegicus; assay: Tested for neuroleptic activity by measuring antagonism of d-amphetamine sulfate at intraperitoneal dosage of 5 mg/kg, after 24 hours in rat; conditions: ip
[4] = test system: Rattus norvegicus; assay: Tested for neuroleptic activity by measuring antagonism of d-amphetamine sulfate at intraperitoneal dosage of 5 mg/kg, after 1 hour in rat; Range is 3.2-10; conditions: ip
[5] = test system: Rattus norvegicus; assay: Tested for neuroleptic activity by measuring antagonism of d-amphetamine sulfate at intraperitoneal dosage of 5 mg/kg, after 1 hour in rat; Range is 10-32; conditions: ip

SMILES	ED50 [1] [mg/kg]	ED50 [2] [mg/kg]	ED50 [3] [mg/kg]	ED50 [4] [mg/kg]	ED50 [5] [mg/kg]
Fc1ccc(C(=CCCN2CCc3c(c4cc(F)ccc4n3-c3ccc(F)cc3)C2)c2ccc(F)cc2)cc1	> 32	> 32	> 32	–	–
OC(CCCN1CCc2[nH]c3ccc(F)cc3c2C1)c1ccc(F)cc1 (stereo not drawn)	> 10	–	> 10	3.2	–
Cc1ccc(C(=O)CCCN2CCc3c(c4cc(F)ccc4n3-c3ccc(F)cc3)C2)cc1	> 10	> 10	–	–	–
OC(CCN1CCc2c(c3cc(F)ccc3n2-c2ccc(F)cc2)C1)c1ccc(F)cc1 (stereo not drawn)	> 10	–	> 10	3.2	–
Cn1c2c(c3cc(F)ccc31)CN(CCCC(=O)c1ccc(F)cc1)CC2	> 32	–	–	–	10
Cc1ccc2c(c1)c1c(n2-c2ccccc2)CCN(C)C1	> 32	–	> 32	–	10
OC(CCCN1CCc2c(c3cc(F)ccc3n2-c2ccc(F)cc2)C1)c1cccs1 (stereo not drawn)	> 32	–	–	–	10
CCOC(=O)N1CCc2c(c3cc(F)ccc3n2-c2ccc(F)cc2)C1	> 32	> 32	> 32	–	–
Cl.O=C(CCCN1CCc2c(c3cc(F)ccc3n2-c2cccc(C(F)(F)F)c2)C1)c1ccc(F)cc1	–	> 32	–	–	–
COc1ccc(-n2c3c(c4cc(F)ccc42)CN(CCCC(O)c2ccc(F)cc2)CC3)cc1.Cl (stereo not drawn)	3.2	1	> 3.2	–	–
CC(C)(C)CCN1CCc2c(c3cc(F)ccc3n2-c2ccc(F)cc2)C1.Cl	> 10	> 10	> 10	–	–
Cl.Fc1ccc(C(CCCN2CCc3c(c4cc(F)ccc4n3-c3ccc(F)cc3)C2)c2ccc(F)cc2)cc1	> 32	> 32	> 32	–	–
CN1CCc2c(c3cc(Br)ccc3n2-c2ccccc2)C1.Cl	–	–	–	3.2	–
Cl.O=C(CCCN1CCc2c(c3cc(F)ccc3n2-c2ccc(C(F)(F)F)cc2)C1)c1ccc(F)cc1	–	> 32	–	–	–
Cl.O=C(CCCCN1CCc2c(c3cc(F)ccc3n2-c2ccc(F)cc2)C1)c1ccc(F)cc1	> 32	> 32	> 32	–	–
CN1CCc2c(c3ccccc3n2-c2ccccc2)C1.Cl	–	–	> 32	–	10
Cl.OC(CCCN1CCc2c(c3cc(F)ccc3n2-c2cccc(C(F)(F)F)c2)C1)c1ccc(F)cc1 (stereo not drawn)	> 32	> 32	–	–	–
CCN1CCc2c(c3cc(F)ccc3n2-c2ccc(F)cc2)C1.Cl	> 10	–	> 10	3.2	–
Cl.Cl.OC(CCCN1CCc2c(c3cc(F)ccc3n2-c2ccc(F)cc2)C1)c1cccnc1 (stereo not drawn)	> 3.2	> 3.2	–	–	–
CCCN1CCc2c(c3cc(F)ccc3n2-c2ccc(F)cc2)C1.Cl	> 10	–	–	3.2	–
COc1ccc2c(c1)c1c(n2-c2ccc(F)cc2)CCN(C)C1.Cl	> 32	> 32	–	–	–
Cl.Fc1ccc(-n2c3c(c4cc(F)ccc42)CN(Cc2ccccc2)CC3)cc1	> 10	–	> 10	3.2	–
Cl.OC(CCCN1CCc2c(c3cc(F)ccc3n2-c2ccc(F)cc2)C1)c1cccc(C(F)(F)F)c1 (stereo not drawn)	> 10	> 10	–	–	–
Cl.OC(CCCN1CCc2c(c3cc(F)ccc3n2-c2ccc(F)cc2)C1)c1ccc(Cl)c(C(F)(F)F)c1 (stereo not drawn)	> 32	> 32	> 32	–	–
Cl.Fc1ccc(-n2c3c(c4cc(F)ccc42)CN(CCc2ccccc2)CC3)cc1	> 32	–	–	–	10
Cl.OC(CCCN1CCc2c(c3cc(F)ccc3n2-c2cccc(F)c2)C1)c1ccc(F)cc1 (stereo not drawn)	> 10	–	–	3.2	–
COc1ccc(-n2c3c(c4cc(F)ccc42)CN(CCCC(=O)c2ccc(F)cc2)CC3)cc1.Cl	> 32	–	–	–	10
COc1ccc2c(c1)c1c(n2-c2ccccc2)CCN(C)C1.Cl	> 32	> 32	–	–	–
Cl.O=C(CCCN1CCc2c(c3cc(F)ccc3n2-c2ccc(F)cc2)C1)c1cccs1	> 32	–	–	–	10
Fc1ccc(-n2c3c(c4cc(F)ccc42)CNCC3)cc1	–	–	–	–	10
